Our source for the IC50 values is patent US10233173B2, “Substituted 1,2,3-triazoles as NR2B-selective NMDA modulators” (JANSSEN PHARMACEUTICA NV, priority 2016, dated 2019).

The target in one assay is human GluN1/GluN2B NMDA receptors (Homo sapiens, UniProt Q05586+Q13224). Briefly: Cell-based calcium flux (FLIPR) assay on cloned human NR1/NR2B ion channels expressed in mammalian cells. As to conditions: standard assay; glutamate at ~EC80; FLIPR calcium flux. In a few lines: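 Calcium influx followed by FLIPR fluorescence after 5 min compound exposure and a further 5 min co-agonist challenge: 10 μM glycine with glutamate at ~EC80 (standard) or EC40 (HTS).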
human GluN1/GluN2B NMDA receptors, sequence (Q13224 27-1484, other chains not shown): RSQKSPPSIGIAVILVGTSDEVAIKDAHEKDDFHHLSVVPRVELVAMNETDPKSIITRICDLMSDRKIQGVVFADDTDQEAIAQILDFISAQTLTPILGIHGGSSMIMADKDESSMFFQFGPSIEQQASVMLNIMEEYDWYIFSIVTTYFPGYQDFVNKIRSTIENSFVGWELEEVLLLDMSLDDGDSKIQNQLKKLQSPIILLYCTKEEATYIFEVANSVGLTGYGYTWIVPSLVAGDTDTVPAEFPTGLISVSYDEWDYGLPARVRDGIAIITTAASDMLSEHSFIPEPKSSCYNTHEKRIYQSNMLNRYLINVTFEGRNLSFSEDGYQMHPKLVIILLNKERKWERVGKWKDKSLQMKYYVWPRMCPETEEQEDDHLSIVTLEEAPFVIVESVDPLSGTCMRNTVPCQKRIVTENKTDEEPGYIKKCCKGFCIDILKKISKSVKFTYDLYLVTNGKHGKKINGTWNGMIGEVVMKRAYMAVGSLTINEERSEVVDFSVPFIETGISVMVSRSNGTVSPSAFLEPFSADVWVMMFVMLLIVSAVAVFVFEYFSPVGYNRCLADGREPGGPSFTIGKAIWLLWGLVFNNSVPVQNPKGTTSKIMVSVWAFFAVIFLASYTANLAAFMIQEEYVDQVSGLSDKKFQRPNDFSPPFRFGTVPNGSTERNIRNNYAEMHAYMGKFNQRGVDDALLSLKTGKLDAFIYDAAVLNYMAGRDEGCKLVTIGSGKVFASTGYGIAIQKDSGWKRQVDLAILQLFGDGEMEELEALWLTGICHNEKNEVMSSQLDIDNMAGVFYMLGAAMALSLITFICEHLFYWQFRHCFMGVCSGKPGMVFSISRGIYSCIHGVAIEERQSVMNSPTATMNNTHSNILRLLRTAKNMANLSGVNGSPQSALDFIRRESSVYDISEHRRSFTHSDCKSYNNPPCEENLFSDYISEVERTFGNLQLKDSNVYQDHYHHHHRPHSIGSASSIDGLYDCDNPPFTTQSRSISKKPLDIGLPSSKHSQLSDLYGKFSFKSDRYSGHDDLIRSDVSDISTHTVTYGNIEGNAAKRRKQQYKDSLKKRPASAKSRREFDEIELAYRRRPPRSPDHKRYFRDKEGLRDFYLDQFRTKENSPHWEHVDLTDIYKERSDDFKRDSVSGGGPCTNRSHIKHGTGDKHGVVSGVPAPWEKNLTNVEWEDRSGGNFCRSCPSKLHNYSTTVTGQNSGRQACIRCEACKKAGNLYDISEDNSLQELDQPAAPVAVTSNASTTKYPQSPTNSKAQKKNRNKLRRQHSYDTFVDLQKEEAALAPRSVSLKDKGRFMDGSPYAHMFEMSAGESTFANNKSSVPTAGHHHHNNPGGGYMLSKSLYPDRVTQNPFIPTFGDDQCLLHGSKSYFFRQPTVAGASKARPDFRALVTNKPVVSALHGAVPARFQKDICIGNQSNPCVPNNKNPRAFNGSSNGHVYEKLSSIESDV
Background: Calcium flux is commonly read through the fluorescence of an indicator in the cells.
The term IC50 denotes the concentration that inhibits the measured activity by half. For `Cc1ccc(F)c(-n2cc(COc3ncc(F)c(C)n3)nn2)c1` [Example 486, 5-Fluoro-2-[[1-(2-fluoro-5-methyl-phenyl)triazol-4-yl]methoxy]-4-methyl-pyrimidine], the IC50 is over 2.99 µM.

For the molecule `CCNc1ccnc(OCc2cn(-c3ccc(F)c(C(F)F)c3)nn2)n1` [Example 691, N-Ethyl-2-((1-(3-(difluoromethyl)-4-fluorophenyl)-1H-1,2,3-triazol-4-yl)methoxy)pyrimidin-4-amine], the IC50 was found to be 0.006 µM.

For the molecule `CCc1cnc(OCc2nnn(-c3ccc(F)c(C(C)(F)F)c3)c2C)nc1` [Example 593, 2-[[1-[3-(1,1-Difluoroethyl)-4-fluoro-phenyl]-5-methyl-triazol-4-yl]methoxy]-5-ethyl-pyrimidine], the IC50 turned out to be 0.486 µM.

Regarding `CC(F)(F)c1cc(-n2cc(COc3ncc(CO)cn3)nn2)ccc1F` [Example 571, [2-[[1-[3-(1,1-difluoroethyl)-4-fluoro-phenyl]triazol-4-yl]methoxy]pyrimidin-5-yl]methanol], the IC50 is 0.021 µM.

For `Cc1nc(OCc2cn(-c3cccc(Cl)c3F)nn2)ncc1F` [Example 613, 2-[[1-(3-Chloro-2-fluoro-phenyl)triazol-4-yl]methoxy]-5-fluoro-4-methyl-pyrimidine], the IC50 was determined as 1.44 µM.

`Cc1c(F)ccc(-n2cc(COc3ncc(OC(F)F)cn3)nn2)c1F` [Example 646, 5-(Difluoromethoxy)-2-[[1-(2,4-difluoro-3-methyl-phenyl)triazol-4-yl]methoxy]pyrimidine]: the IC50 was 0.099 µM.

Consider `Fc1ccc(-n2cc(COc3nccc(-c4ccc[nH]4)n3)nn2)cc1OC(F)F` [Example 681, 2-((1-(3-(Difluoromethoxy)-4-fluorophenyl)-1H-1,2,3-triazol-4-yl)methoxy)-4-(1H-pyrrol-2-yl)pyrimidine], for which the IC50 stood at 0.681 µM.

Take `Nc1cnc(OCc2cn(-c3ccc(F)c(OC(F)F)c3)nn2)nc1` [Example 502, 2-[[1-[3-(Difluoromethoxy)-4-fluoro-phenyl]triazol-4-yl]methoxy]pyrimidin-5-amine]: the IC50 is 0.136 µM.

In the case of `CCc1ccnc(OCc2cn(-c3ccc(F)c(OC(F)F)c3)nn2)n1` [Example 495, 2-f[[1-[3-(Difluoromethoxy)-4-fluoro-phenyl]triazol-4-yl]methoxy]-4-ethyl-pyrimidine], the IC50 came out at 0.01 µM.

For `Cc1nccn1-c1ccnc(OCc2cn(-c3ccc(F)c(C(F)F)c3)nn2)n1` [Example 692, 2-((1-(3-(Difluoromethyl)-4-fluorophenyl)-1H-1,2,3-triazol-4-yl)methoxy)-4-(2-methyl-1H-imidazol-1-yl)pyrimidine], the IC50 turned out to be 1.58 µM.

`Cc1cnc(OCc2cn(-c3cc(F)ccc3F)nn2)nc1` [Example 603, 2-[[1-(2,5-Difluorophenyl)triazol-4-yl]methoxy]-5-methyl-pyrimidine]: the IC50 worked out at 10.4 µM.

For the molecule `Cc1cc(-n2cc(COc3ncccn3)nn2)ccc1F` [Example 473, 2-[[1-(4-Fluoro-3-methyl-phenyl)triazol-4-yl]methoxy]pyrimidine], the IC50 amounted to 0.072 µM.

Regarding `Cc1cc(F)ccc1-n1cc(COc2ncc(F)cn2)nn1` [Example 487, 5-Fluoro-2-[[1-(4-fluoro-2-methyl-phenyl)triazol-4-yl]methoxy]pyrimidine], the IC50 turned out to be 16.2 µM.

For `CNc1nc(OCc2cn(-c3ccc(F)c(C(F)F)c3)nn2)ncc1F` [Example 414, 2-[[1-[3-(Difluoromethyl)-4-fluoro-phenyl]triazol-4-yl]methoxy]-5-fluoro-N-methyl-pyrimidin-4-amine], the IC50 turned out to be 0.122 µM.

In the case of `Cc1ccnc(OCc2cn(-c3ccc(C)c(OC(F)F)c3)nn2)n1` [Example 523, 2-[[1-[3-(Difluoromethoxy)-4-methyl-phenyl]triazol-4-yl]methoxy]-4-methyl-pyrimidine], the IC50 was 0.114 µM.

In the case of `Cc1cccc(-n2cc(COc3ncc(Cl)c(C)n3)nn2)n1` [Example 661, 5-Chloro-4-methyl-2-[[1-(6-methyl-2-pyridyl)triazol-4-yl]methoxy]pyrimidine], the IC50 is over 2.99 µM.

With `Cc1nc(OCc2cn(-c3ccc(F)c(OC(F)F)c3)nn2)ncc1Cl` [Example 513, 5-Chloro-2-[[1-[3-(difluoromethoxy)-4-fluoro-phenyl]triazol-4-yl]methoxy]-4-methyl-pyrimidine], the IC50 is 0.004 µM.

The assay is the same for the next values; noted with them: standard assay; human GluN1/GluN2B, calcium flux (FLIPR), glutamate ~EC80.
For `COc1cnc(OCc2cn(-c3cccc(C(C)(F)F)c3)nn2)nc1` [Example 306, 2-[[1-[3-(1,1-Difluoroethyl)phenyl]triazol-4-yl]methoxy]-5-methoxy-pyrimidine], the IC50 was determined as 0.003 µM.

Consider `Cc1ccnc(OCc2cn(-c3ccc(F)c(OC(F)F)c3)nn2)n1` [Example 64, 2-[[1-[3-(Difluoromethoxy)-4-fluoro-phenyl]triazol-4-yl]methoxy]-4-methyl-pyrimidine], for which the IC50 was found to be 0.007 µM.

With `CC(Oc1ncc(Cl)cn1)c1cn(-c2ccc(Cl)c(OC(F)F)c2)nn1` (racemic) [Example 60, (R/S)-5-Chloro-2-[1-[1-[4-chloro-3-(difluoromethoxy)phenyl]triazol-4-yl]ethoxy]pyrimidine], the IC50 is 0.032 µM.

In the case of `FC(F)c1cc(-n2cc(CNc3ncccn3)nn2)ccc1Cl` [Example 109, N-[[1-[4-Chloro-3-(difluoromethyl)phenyl]triazol-4-yl]methyl]pyrimidin-2-amine], the IC50 stood at 1.26 µM.

`CC(F)(F)c1cccc(-n2cc(COc3nccc(N4CCCC4)n3)nn2)c1` [Example 322, 2-[[1-[3-(1,1-Difluoroethyl)phenyl]triazol-4-yl]methoxy]-4-pyrrolidin-1-yl-pyrimidine]: the IC50 came out at 0.011 µM.

Regarding `C[C@H](Oc1ncccn1)c1cn(-c2ccc(Cl)c(OC(F)F)c2)nn1` [Example 378, 2-[(1S)-1-[1-[4-Chloro-3-(difluoromethoxy)phenyl]triazol-4-yl]ethoxy]pyrimidine], the IC50 amounted to 2.3 µM.

With `Fc1ccc(-n2cc(CNc3ncccn3)nn2)cc1C(F)F` [Example 24, N-[[1-[3-(Difluoromethyl)-4-fluoro-phenyl]triazol-4-yl]methyl]pyrimidin-2-amine], the IC50 stood at 0.824 µM.

Regarding `Cc1cccc(-n2cc(COc3ncc(Cl)c(C)n3)nn2)c1` [Example 253, 5-Chloro-4-methyl-2-[[1-(m-tolyl)triazol-4-yl]methoxy]pyrimidine], the IC50 stood at 0.007 µM.

As for `Nc1nc(OCc2cn(-c3ccc(F)c(OC(F)F)c3)nn2)ncc1F` [Example 167, 2-((1-(3-(Difluoromethoxy)-4-fluorophenyl)-1H-1,2,3-triazol-4-yl)methoxy)-5-fluoropyrimidin-4-amine], the IC50 worked out at 0.013 µM.

For `FC(F)c1cc(-n2cc(COc3ncccn3)nn2)ccc1Cl` [Example 1, 2-((1-(4-Chloro-3-(difluoromethyl)phenyl)-1H-1,2,3-triazol-4-yl)methoxy)pyrimidine], the IC50 worked out at 0.049 µM.

For `Fc1ccc(-n2cc(COc3nccc(N4CCOCC4)n3)nn2)cc1OC(F)F` [Example 170, 4-[2-[[1-[3-(Difluoromethoxy)-4-fluoro-phenyl]triazol-4-yl]methoxy]pyrimidin-4-yl]morpholine], the concentration for half-maximal inhibition (IC50) was found to be 0.26 µM.

Turning to `Cn1cc(NCc2cn(-c3ccc(F)c(OC(F)F)c3)nn2)cn1` [Example 102, N-[[1-[3-(Difluoromethoxy)-4-fluoro-phenyl]triazol-4-yl]methyl]-1-methyl-pyrazol-4-amine], the IC50 stood at 3.25 µM.

On to `Fc1ccc(-n2cc(COc3nccc(N4CCCC4)n3)nn2)cc1OC(F)F` [Example 168, 2-[[1-[3-(Difluoromethoxy)-4-fluoro-phenyl]triazol-4-yl]methoxy]-4-pyrrolidin-1-yl-pyrimidine], for which the IC50 amounted to 0.008 µM.

Take `Cc1cnc(OCc2cn(-c3ccc(OC(F)(F)F)cc3)nn2)nc1` [Example 339, 5-Methyl-2-[[1-[4-(trifluoromethoxy)phenyl]triazol-4-yl]methoxy]pyrimidine]: the IC50 came to 1.13 µM.

For `Cc1cnc(OCc2cn(-c3cccc(C(F)(F)F)c3)nn2)nc1C` [Example 290, 4,5-Dimethyl-2-[[1-[3-(trifluoromethyl)phenyl]triazol-4-yl]methoxy]pyrimidine], the IC50 turned out to be 0.007 µM.

For the molecule `Cc1cnc(OCc2nnn(-c3cccc(C(F)F)c3)c2C)nc1` [Example 149], the IC50 is 0.952 µM.

Take `CCc1cnc(OCc2cn(-c3cccc(OC(F)(F)F)c3)nn2)nc1` [Example 351, 5-Ethyl-2-[[1-[3-(trifluoromethoxy)phenyl]triazol-4-yl]methoxy]pyrimidine]: the IC50 was found to be 0.015 µM.

As to `Fc1cccnc1OCc1cn(-c2ccc(Cl)c(OC(F)F)c2)nn1` [Example 107, 2-[[1-[4-Chloro-3-(difluoromethoxy)phenyl]triazol-4-yl]methoxy]-3-fluoro-pyridine], the IC50 came out at 0.119 µM.

With `COCc1ccnc(OCc2cn(-c3cccc(OC(F)(F)F)c3)nn2)n1` [Example 346, 4-(Methoxymethyl)-2-[[1-[3-(trifluoromethoxy)phenyl]triazol-4-yl]methoxy]pyrimidine], the IC50 was determined as 0.202 µM.

As for `FC(F)Oc1cnc(OCc2cn(-c3cccc(C(F)F)c3)nn2)nc1` [Example 276, 5-(Difluoromethoxy)-2-[[1-[3-(difluoromethyl)phenyl]triazol-4-yl]methoxy]pyrimidine], the IC50 stood at 0.031 µM.

Consider `Cc1cnc(OCc2cn(-c3ccc(Cl)c(OC(F)F)c3)nn2)nc1` [Example 22, 2-[[1-[4-Chloro-3-(difluoromethoxy)phenyl]triazol-4-yl]methoxy]-5-methyl-pyrimidine], for which the IC50 is 0.002 µM.

Consider `Cc1cnc(O[C@@H](C)c2cn(-c3ccc(Cl)c(OC(F)F)c3)nn2)nc1` [Example 380, 2-[(1S)-1-[1-[4-Chloro-3-(difluoromethoxy)phenyl]triazol-4-yl]ethoxy]-5-methyl-pyrimidine], for which the IC50 came out at 0.237 µM.

With `Cc1cnc(OCc2cn(-c3cccc(Br)c3)nn2)nc1` [Example 234, 2-[[1-(3-Bromophenyl)triazol-4-yl]methoxy]-5-methyl-pyrimidine], the IC50 is 0.022 µM.
